The record followed here is patent US4853221A, “Method for treating non-small cell lung cancer, head and neck cancers and breast cancer” (Warner-Lambert Company, priority 1987, dated 1989).

For one experiment, the system named is T-Cell 8402. As to the kind of experiment: Inhibition of T-Cell 8402 growth in vitro. In kind it is cell-based, human. To be noted: 48 h; Human T-Cell 8402; read-out: ED50 (the source's name). The protocol: (§1) Logarithmically growing L1210 cells (approximately 3×10^5 cells/ml) were diluted with Fischer's medium (containing 10% horse serum) to an approximate concentration of 5×10^4 cells/ml. Cells were planted in duplicate into 15 ml culture tubes containing either no drug or various amounts of drug, and incubated for 48 hours at 37° C. before being counted.
(§2) Trimetrexate was also evaluated in a similar manner side-by-side with methotrexate for its effect on the growth of three additional murine cell lines (L5178Y, Sarcoma-180, and Walkler-256) and three human cell lines (acute myelogenous leukemia K-562, T-cell 8402, and B-cell 8392), propagated in vitro.

A further experiment concerns B-Cell 8392. As to the kind of experiment: Inhibition of B-Cell 8392 growth in vitro. In kind it is cell-based, human. Particulars: 48 h; Human B-Cell 8392; read-out: ED50 (the source's name). The protocol: as §1, §2
In a further experiment the test system is Colon 26. As to the kind of experiment: Antitumor activity against colon adenocarcinoma 26 in mice. In kind it is in vivo, mouse. To be noted: for Life Span % ILS / Life Span % T/C: ip every 4 days, Days 1-5. The protocol: (§3) The growth inhibition properties of 5-methyl-6-[[(3,4,5-trimethoxyphenyl)amino]methyl]-2,4-quinazolinediamine (trimetrexate) against several transplanted murine tumors were evaluated employing the antitumor screening program of the Drug Evaluation Branch of the National Cancer Institute. The protocols for these tests is described in Cancer Chemotherapy Reports, 3: 1-103 (1972). The dosing schedules are results from these tests appear in Table IV.
(§4) Percent increase in median life span (% ILS) values appearing in the tables were calculated from the formula; 100×(median life span in days of treated mice minus median life span in days of untreated mice) divided by median life span in days of untreated control mice. That is, % ILS=[100×(T-C)]/C. % T/C and %ILS are directly interconvertible by the formula % ILS=% T/C -100.
Colon adenocarcinoma Nos. 26 and 38. Colon adenocarcinoma 26 was propagated in Balb/cj mice for 12 to 15 days. After this time, 0.5 ml of a 1% tumor brei, prepared from several excised subcutaneously passaged tumors, was implanted intraperitoneally into CDF1 mice. Animals were treated with drug ip on Days 1 and 5 following tumor implantation. The median survival time of the treated animals was determined and expressed as a percentage of the median survival time of untreated control animals.
(§5) In all of the mouse tumor studies described above, routine controls consisted of matching ten normal mice (with no tumors) to each tumor-bearing treatment group and injecting them with the same drug at the same dosages, schedules, days of administration, and drug route as the tumor-bearing mice. In this way, drug-induced toxicity (lethality and weight loss) could be clearly separated from the effects of the drug on the tumors.

The next experiment has as its system Lewis lung carcinoma. As to the kind of experiment: Antitumor activity against Lewis lung carcinoma in mice. In kind it is in vivo, mouse. Particulars: optimal dose 40 mg/kg (dose range 40-1.25), IV daily, Days 1-9. The protocol:
as §3, §4, §5

In experiment [1] the test system is Early Stage P388 Leukemia. As to the kind of experiment: Combination chemotherapy, therapeutic synergy against early stage P388 leukemia. In kind it is in vivo, mouse. To be noted: Test 1. The protocol:
Several studies were carried out to determine the potential for therapeutic synergy of trimetrexate with several clinically active anticancer agents. […] (See, for example, Vendetti, "Relevance of Transplantable Animal-Tumor Systems to the Selection of New Agents for Clinical Trial," Pharmacological Basis of Cancer Chemotherapy. Williams and Wilkins, Baltimore, 1975, and Simpson Herren, et al., "Evaluation of In Vivo Tumor Models for Predicting Clinical Activity for Anticancer Drugs," Proc. Am. Assoc. Cancer Res., 26: 330 (1985).
Differences in cell kill of greater than ten-fold (one log) were considered indicative of therapeutic synergy.
CD2F1 mice were quarantined for at least two weeks prior to allocation to test groups. P388 leukemia was passaged in DBA2 mice according to standard protocols of the National Cancer Institute. On Day 0 of a given test, all mice in the test were randomized, injected intraperitoneally with suitably diluted ascites fluid from P388 tumor-bearing donor mice and rerandomized to test cages.
The initial inoculum for all but titration groups was 10^6 cells as determined by hemocytometer count. Each experiment contained an internal control and tumor titration which enabled the determination of the tumor doubling time and estimates of the log cell kill and number of tumor cells surviving treatment.
Drug treatment was begun either on Day 1 or on Day 4 depending upon the relative activity of the agents being tested.
All of the drugs were injected within one hour of dissolution, with the exception of trimetrexate which was made up fresh twice daily. All mice were treated on the basis of average cage-group weight.
In drug combination regimens, trimetrexate was given approximately 30 minutes before the other therapeutic agents when the route of administration of the other agent was ip. […]
Group average weights were determined for all groups on Days 1, 5, and 9 for "early stage" P388 tests and on Days 4, 8, and 12 for "advanced stage" P388 tests. Animals were monitored for life span. […]

For the next experiment, the system named is breast cancer. As to the kind of experiment: Phase II trial, breast cancer. In kind it is in vivo, human. The protocol: The efficacy and safety of trimetrexate in the treatment of patients with breast cancer was evaluated in an 10-center Phase II study. Twenty-eight patients participated in the multicenter study, with a group of 20 patients considered evaluable. […] All patients had metastatic disease and the principal sites of metastasis included lung, bone, and liver.
Patients were initially treated intravenously with 8 mg/m^2 /day of trimetrexate on Days 1 through 5 of a 21-day treatment cycle. Patients were evaluated after each treatment course and were withdrawn from the study if progressive disease was documented. Patients were eligible to received six courses of treatment if stable disease was documented; treatment beyond six courses was left to the discretion of the physician. The dose of trimetrexate was adjusted for each patient prior to each subsequent course of treatment based upon the patient reaction to the drug in the preceding course of treatment, and ranged from 8 mg/m^2 /day to about […]. A total of 91 courses of treatment were administered to the patients in the study.

Setting [2] is: optimal dose 30 mg/kg (dose range 120-3.75).
The mark [3] stands for this setting: optimal dose 60 mg/kg (dose range 120-3.75).

As to `COc1cc(NCc2ccc3nc(N)nc(N)c3c2C)cc(OC)c1OC` [Trimetrexate, 5-methyl-6-[[(3,4,5-trimethoxyphenyl)amino]methyl]-2,4-quinazolinediamine], the IC50 is 10 nM in the experiment on T-Cell 8402 and 5 nM in the experiment on B-Cell 8392. For the same molecule, in the experiment with Colon 26 (mouse, in vivo), the “antitumor activity” value is given as “good activity”. Further, the “Life Span % ILS” value in the experiment with Colon 26 (setting [2]) turned out to be 56%; in the experiment with Colon 26 (setting [3]), 115%. The “Life Span % T/C” value in the experiment with Colon 26 (setting [2]) was 156%; in the experiment with Colon 26 (setting [3]) it was 215%; in the experiment on Lewis lung carcinoma, “Negligible”. The “single agent activity” value in experiment [1] is recorded as “the more active of the two single agents”. The “patients with stable disease” value in the experiment on breast cancer (20 evaluable patients) was determined as 10 patients. The “patients with partial response” value with breast cancer (20 evaluable patients, initial 8 mg/m^2/day iv Days 1-5 of 21-day cycle) came out at 3 patients. The partial response rate with breast cancer (p5% confidence interval 0-30.6%, 20 evaluable patients) is on record as 15%. For the same molecule, in the experiment with breast cancer (range 6.4-18.7+ weeks), the “median duration of partial response” value was 13.1 weeks.
